The text below walks through data of patent US11578049B2, “Benzoic acid compound and method for preparing the same” (Henan Genuine Biotech Co., Ltd., priority 2018, dated 2023).

In data set [1] the test system is rats exposed to cerebral ischemia and reperfusion. Nature of the data set: Cerebral blood flow in rats exposed to cerebral ischemia and reperfusion (tMCAO), laser Doppler. Type of data set: in vivo, Sprague Dawley (SD) rats. The conditions noted are these: for Reperfusion/Postoperative (cerebral blood flow recovery): 2 hours ischemia, 3 mg/kg iv immediately after reperfusion; for Postoperative/Preoperative (cerebral blood flow): blood flow immediately after initiation of ischemia relative to before the operation, drug 3 mg/kg iv given immediately after reperfusion. As for the experimental part: (§1) 1.2 Experimental procedure: Male Sprague Dawley (SD) rats was subjected to operation after experimental adaption for 5-7 days, with a weight of 200-250 g. The rats were anesthetized by intraperitoneal injection of 0.35 mL/100 g 10% chloral hydrate, and positioned on a temperature-controlled, operating surface. The common carotid artery was isolated from surrounding nerves to the bifurication between the external carotid artery and the internal carotid artery. The external carotid artery was then isolated. A sterile middle cerebral artery occlusion (MCAO) suture was advanced through external carotid artery into the internal carotid artery (about 18 mm±0.5 mm from the point of the carotid bifurication), effectively occluding the middle cerebral artery. The suture was withdrawn after 2 hours ischemic period to simulate clinical reperfusion. All rats were scored according to Longa scoring system, in which the rats with a total score less than 1 were withdrawn. The rats were kept on a heating blanket and allowed to recover from anesthesia. A neurobehavioral examination was performed at 24 h after awakening. Blood was drawn from each rat under anesthesia, collected in a tube containing K2-EDTA as anticoagulant for stabilizing the blood samples, centrifuged to separate supernatant from precipitate, and stored at […]. Then the rats were euthanized. The brains were cut into slices, stained with 2,3,5-triphenyltetrazolium chloride (TTC), and used to determine the infarct area. The experiment was complete within 3 days, with 3-4 rats per group daily.
1.3 Intraoperative monitoring: Transcranial measurement of cerebral blood flow was made using […] at three points, namely before the operation, immediately after the initiation of ischemia, and immediately after reperfusion.
(§2) 1.7 Drug preparation: The drugs to be tested were accurately weighed, dissolved in physiological saline to give a final concentration of 1.5 mg/mL.
(§3) 1.8 Administration method: The drugs were removed from the refrigerator and […] to room temperature before the rats were dosed. The dosing volume was 2 mL/kg.
(§4) All data was imported into an Excel worksheet, and expressed as mean±standard error of the mean. Statistical significance was determined by one-way ANOVA with Dunnett's multiple comparison test (*P<0.05, **P<0.01).

The nature of data set [2]: Metabolic stability measured in human liver microsomes. The following applies: for half-life at 2 μg/mL: human, pH 7.4; for t1/2 (elimination half-life): human liver microsomes 1.0 mg/ml, compound 2 μg/mL, NADPH 2 mM, pH 7.4, 37° C.
Method: (§5) 1000 μL of a reaction system contained butylphthalide compounds (2 μg/mL), human liver microsomes (1.0 mg/ml), NADPH (2 mM) and phosphate buffer (100 mM, pH=7.4). […] The human liver microsomes were pre-incubated with MTB compound series for 5 min at 37° C. water bath in a phosphate buffer. The reaction mixture was initiated by an addition of NADPH and incubated for 0, 5, 10, 20, 30, 40, 60 and 120 minutes. To the resulting mixture cooled in an ice bath, was added 50 μL of internal standard solution and 150 μL of frozen methanol to terminate the reaction, then followed by LC/MS/MS detection with reference to 2.1).
(§6) The concentrations of the MTB compound series are determined on a standard curve obtained by plotting time versus concentration using the Pharmacokinetic software DAS 3.0, and the elimination half-life (t1/2) was determined from the concentration-time plots.
Data set [3] has as its system rats exposed to cerebral ischemia and reperfusion. Nature of the data set: Infarct area of rats exposed to cerebral ischemia and reperfusion (tMCAO), TTC staining. It is filed as in vivo, Sprague Dawley (SD) rats. The conditions noted are these: 3 mg/kg iv immediately after reperfusion; for Cerebral infarction ratio: TTC, infarct area / total brain area; for Percentage inhibition of cerebral infarction: versus model group. As to the method: as §1, §2, §3
1.9.2 Cerebral infarction ratio: The rats were euthanized with chloral hydrate (330 mg/kg anesthesia), given by CO2 inhalation, and blood was drawn by cardiac puncture. The brains were removed from the skull and cut into 2 mm coronal slices using a rat brain matrix. Each slice was stained with 1% TTC at 37° C. for 5 minutes, protected from light, and were photographed. The ratio of infarct area was then determined using an image analysis software Image Pro Plus 6.0. The infarct areas were summed and divided by total brain area to yield the ratio of infarct area.
as §4

Data set [4] in a line: Physical properties of the salts (water absorption). It is filed as physicochemical. The following applies: solid salt. An excerpt:
5. The type of the salt of the compound 5 affects its physical properties. […] In addition, the excess alkali leads to the closed-loop reaction between hydroxyl group and fluorine atom. Potassium hydroxide contacts the compound 12 to yield a potassium salt which is not a solid. […] Therefore, high-purity of potassium salt and sodium salt products are not easy to obtain in this disclosure, which is unfavorable to large-scale production. Therefore, the following compounds are also included in the present invention: […]

For data set [5], the system named is mice. The conditions noted are these: for median lethal dose: acute toxicity test.
Method: (§7) The drugs were diluted in the water to prepare different concentration ranges per each drug, and injected via tail vein into the mice, respectively. Mortality was determined and LD50 (median lethal dose) value was calculated.
The nature of data set [6]: in vivo. The following applies: mouse.
Method: as §7
Data set [7] can be described thus: in vitro. The conditions noted are these: human, microsomes, pH 7.4.
Method: as §5, §6
Where [8] appears, read: text: recovery relative to preoperative, 3 mg/kg.

“And” between values parts separate entries of the source, which are not always exact repeats. Equal entries are not always repeated.

Regarding `O=C([O-])c1cc(Br)ccc1C(O)CCC1CC1.[Na+]` (centres unmarked) [Compound 14], in data set [1] (recovery relative to preoperative), the “Reperfusion/Postoperative (cerebral blood flow recovery)” value (from here on “Reperfusion/Postoperative”) is 88.3%. Also, the “Postoperative/Preoperative (cerebral blood flow)” value (“Postoperative/Preoperative” below) in data set [1] is 13.5%. Also, the half-life at 2 μg/mL in data set [2] (human liver microsomes) was 2.44 h.

In the case of `O=C([O-])c1cc(Br)ccc1C(O)CCCCF.[Na+]` (centres unmarked) [Compound 15], the “Reperfusion/Postoperative” value in data set [1] (setting [8]) was 95.6%; in data set [1] (text: recovery relative to preoperative, listed as compound 15, 3 mg/kg), 95.3% and 95.6%. Further, the “Postoperative/Preoperative” value in data set [1] was 16.8%. The Cerebral infarction ratio in data set [3] (3 mg/kg) was 12.0%; in data set [3] (listed as compound 15, 3 mg/kg), 12.0%. The “Percentage inhibition of cerebral infarction” value (from here on “Percentage inhibition”) in data set [3] (3 mg/kg) came out at 75.3%; in data set [3] (listed as compound 15, 3 mg/kg), 75.3%. Moreover, in data set [4], the “water absorption in the air” value was “easy to absorb water in the air”. Also, the median lethal dose in data set [5] is reported as 1036 mg. Moreover, the LD50 in data set [6] was found to be 1040 mg/kg. This molecule showed a half-life at 2 μg/mL in data set [2] (microsomes) of 19.1 h.

As to `O=C(O)c1cc(Br)ccc1C(O)CCCCF` (centres unmarked) [Compound 17], the “Reperfusion/Postoperative” value in data set [1] (setting [8]) is 95.6% and 95.3%. Further, in data set [1], the “Postoperative/Preoperative” value stood at 15.5%. Further, in data set [3], the Cerebral infarction ratio stood at 11.8% and the “Percentage inhibition” value was found to be 77.4%. The “water absorption in the air” value in data set [4] is listed as “no water absorption”. This molecule also came in with an LD50 in data set [6] (intravenous) of 1100 mg/kg. In data set [7], this molecule showed a half-life at 2 μg/mL of 19.3 h.

Take `CCCCC(O)c1ccccc1C(=O)[O-].[K+]` (centres unmarked) [Potassium butylphthalide]: the Cerebral infarction ratio in data set [3] (3 mg/kg) turned out to be 37.5%; in data set [3] (listed as potassium butylphthalide, 3 mg/kg), 37.5%. The “Percentage inhibition” value worked out at 26.4% in data set [3] (3 mg/kg) and 26.4% in data set [3] (listed as butylphthalide potassium, 3 mg/kg). For the same molecule, the median lethal dose in data set [5] was found to be 373 mg. In data set [5] (injected via tail vein), the “LD50 (median lethal dose)” value worked out at 373 mg/kg. The “t1/2 (elimination half-life)” value in data set [2] (listed as Potassium Butylphthalide) is given as <1 h; in data set [2] (listed as potassium butylphthalide) it was “less than 1 h”.
